The structures appear in SMILES notation.

The values that follow come from ChEMBL document CHEMBL3045215, “Synthesis and insecticidal activity of 3,4-dihydropyrimidine-2(1H)-thiones against the pulse beetle, Callosobruchus chinensis” (2011).

Assay [1] relates to Callosobruchus chinensis. Kind of assay: Insecticidal activity against Callosobruchus chinensis adults reared on green gram assessed as insect mortality at 1000 mg/L after 24 hr. It is filed as functional.
The test system of assay [2] is Callosobruchus chinensis. Description: Insecticidal activity against Callosobruchus chinensis adults reared on green gram assessed as insect mortality after 24 hr. Format: functional.

For `COc1ccc(C2=CC(c3ccc(F)cc3)NC(=S)N2)cc1` (configuration not stated), the mortality (as a rule, the share of the test organisms that died) at 1000 µg/mL in the assay with Callosobruchus chinensis [1] was determined as 86%. Besides, the LC50 with Callosobruchus chinensis [2] was found to be 0.00304 mg/cm2. Consider `COc1ccc(C2=CC(c3ccc(OC)cc3)NC(=S)N2)cc1` (configuration not stated), for which the mortality at 1000 µg/mL with Callosobruchus chinensis [1] is 70%.

For `S=C1NC(c2ccccc2)=CC(c2ccccc2Cl)N1` (configuration not stated), the mortality at 1000 µg/mL in the assay with Callosobruchus chinensis [1] stood at 78%. Besides, the LC50 in the assay with Callosobruchus chinensis [2] is 0.00201 mg/cm2.

In the case of `S=C1NC(c2ccc(Cl)cc2)=CC(c2ccccc2Cl)N1` (configuration not stated), the mortality at 1000 µg/mL in the assay on Callosobruchus chinensis [1] was 85%. Also, the LC50 in the assay with Callosobruchus chinensis [2] is recorded as 0.00524 mg/cm2. Take `COc1ccc(C2=CC(c3ccccc3)NC(=S)N2)cc1` (configuration not stated): the mortality at 1000 µg/mL in the assay with Callosobruchus chinensis [1] came out at 68%.

`Cc1ccc(C2=CC(c3ccc(Cl)cc3)NC(=S)N2)cc1` (configuration not stated): the mortality at 1000 µg/mL with Callosobruchus chinensis [1] was 93%. Moreover, in the assay on Callosobruchus chinensis [2], the LC50 is 0.01227 mg/cm2.

Regarding `SC1=NC(c2ccccc2)=CC(c2ccccc2)N1` (configuration not stated), the mortality at 1000 µg/mL with Callosobruchus chinensis [1] was found to be 75%. Moreover, the LC50 with Callosobruchus chinensis [2] is on record as 0.00795 mg/cm2. `COc1ccc(C2C=C(c3ccccc3)NC(=S)N2)cc1` (configuration not stated): the mortality at 1000 µg/mL with Callosobruchus chinensis [1] was 60%. Besides, the LC50 with Callosobruchus chinensis [2] was found to be 0.00164 mg/cm2. On to `Cc1ccc(C2=CC(c3ccccc3Cl)NC(=S)N2)cc1` (configuration not stated), for which the mortality at 1000 µg/mL in the assay on Callosobruchus chinensis [1] came out at 87%. In addition, in the assay with Callosobruchus chinensis [2], the LC50 turned out to be 0.00122 mg/cm2. On to `COc1ccc(C2=CC(c3ccccc3Cl)NC(=S)N2)cc1` (configuration not stated), for which, in the assay on Callosobruchus chinensis [1], the mortality at 1000 µg/mL is 68%. As for `Cc1ccc(C2=CC(c3ccc(F)cc3)NC(=S)N2)cc1` (configuration not stated), the mortality at 1000 µg/mL with Callosobruchus chinensis [1] is 68%. Regarding `S=C1NC(c2ccc(Cl)cc2)=CC(c2ccc(Cl)cc2)N1` (configuration not stated), the mortality at 1000 µg/mL in the assay with Callosobruchus chinensis [1] was determined as 69%. As for `Fc1ccc(C2C=C(c3ccc(Cl)cc3)NC(=S)N2)cc1` (configuration not stated), the mortality at 1000 µg/mL in the assay on Callosobruchus chinensis [1] came to 75%. Moreover, the LC50 in the assay on Callosobruchus chinensis [2] is recorded as 0.00461 mg/cm2. Take `COc1ccc(C2=CC(c3ccc(Cl)cc3)NC(=S)N2)cc1` (configuration not stated): in the assay on Callosobruchus chinensis [1], the mortality at 1000 µg/mL was 82%. In addition, in the assay on Callosobruchus chinensis [2], the LC50 was found to be 0.00175 mg/cm2. For the compound `COc1ccc(C2C=C(c3ccc(Cl)cc3)NC(=S)N2)cc1` (configuration not stated), in the assay on Callosobruchus chinensis [1], the mortality at 1000 µg/mL was found to be 40%. Same read-out and setting: the result for `Fc1ccc(C2C=C(c3ccccc3)NC(=S)N2)cc1` (configuration not stated) reads 60%. For the compound `S=C1NC(c2ccccc2)=CC(c2ccc(Cl)cc2)N1` (configuration not stated), the mortality at 1000 µg/mL with Callosobruchus chinensis [1] stood at 90%. In addition, the LC50 in the assay with Callosobruchus chinensis [2] is 0.00289 mg/cm2.

On to `COP(=O)(OC)OC=C(Cl)Cl` [DICHLORVOS], for which, in the assay with Callosobruchus chinensis [2], the LC50 was determined as 0.00243 mg/cm2. For the compound `COc1ccc(C2C=C(c3ccc(C)cc3)NC(=S)N2)cc1` (configuration not stated), in the assay with Callosobruchus chinensis [1], the mortality at 1000 µg/mL came out at 80%. `Cc1ccc(C2=CC(c3ccccc3)NC(=S)N2)cc1` (configuration not stated): the mortality at 1000 µg/mL in the assay with Callosobruchus chinensis [1] came out at 66%. On to `S=C1NC(c2ccc(Cl)cc2)=CC(c2ccccc2)N1` (configuration not stated), for which, in the assay with Callosobruchus chinensis [1], the mortality at 1000 µg/mL came to 78%. In addition, the LC50 in the assay on Callosobruchus chinensis [2] was found to be 0.00556 mg/cm2.
